In test [1] the test system is K. pneumoniae. The test is described as follows: Bacterial susceptibility testing, MIC by broth microdilution (CLSI). The test is classed as cell-based. The conditions noted are these: 35° C., 18-24 h.
Experimental: (§1) Minimal inhibitory concentrations (MIC) were determined by the broth microdilution method in accordance with the Clinical and Laboratory Standards Institute (CLSI) guidelines. In brief, organism suspensions were adjusted to a 0.5 McFarland standard to yield a final inoculum between 3×10^3 and 7×10^5 colony-forming units (CFU)/mL. Drug dilutions and inocula were made in sterile, cation adjusted Mueller-Hinton Broth (Beckton Dickinson). An inoculum volume of 100 μL was added to wells containing 100 μL of broth with 2-fold serial dilutions of drug.
For test [2], the system named is E. coli. The test is described as above. The conditions noted are these: for MIC: Escherichia coli, read-out: E. coli MIC, broth microdilution, 35° C., 18-24 h; for E. coli MIC: broth microdilution, 35° C., 18-24 h. (In broth dilution the organism is exposed to a series of concentrations in liquid medium.)
Experimental: as §1

≈ marks a conversion by molar mass, not a printed value. A value given as a limit tells only on which side of the number the result lay.

Regarding `O=c1[nH]cnc(CC(CO)c2ccc(C#Cc3ccc(CN4CCNCC4)cc3)cc2)c1O` (stereo not drawn) [Compound 54], in test [1], the “K. pneumoniae MIC” value is given as “B (B: >1 μg/mL to ≤8.0 μg/mL)”. The MIC (commonly the lowest concentration found to suppress growth) in test [2] is 1 to 8 µg/mL (≈ 2.25 to 18 µM).
As to `O=c1[nH]cnc(CC(CO)c2ccc(C#Cc3ccc(CN4CCNCC4)cc3)cc2)c1O` (stereo not drawn) [Compound 55], in test [1], the “K. pneumoniae MIC” value is reported as “D (D: >32 μg/mL)”. Besides, the “E. coli MIC” value in test [2] was “B (B: >1 μg/mL to ≤8.0 μg/mL)”.
With `CN(C[C@@H](Cc1nc[nH]c(=O)c1O)c1ccc(C#Cc2ccc(CN3CCOCC3)cc2)cc1)C1CC1` (single isomer, unassigned) [Compound 302], the MIC in test [2] was below 1 µg/mL.
The same measure, in the same setting: the result for `CS(=O)(=O)N1CC[C@@H](NCc2ccc(C#Cc3ccc(C(CO)Cc4nc[nH]c(=O)c4O)cc3)cc2)C1` (single isomer, unassigned) [Compound 254] reads below 1 µg/mL; that for `C[C@H](CC#N)NCC(Cc1ncnc(O)c1O)c1ccc(C#Cc2ccc(CN3CCOCC3)cc2)cc1` (single isomer, unassigned) [Compound 100], below 1 µg/mL; that for `C[C@@H](CC#N)NCC(Cc1nc[nH]c(=O)c1O)c1ccc(C#Cc2ccc(CN3CCOCC3)cc2)cc1` (single isomer, unassigned) [Compound 98], below 1 µg/mL.
In the case of `COC1CN(Cc2ccc(C#Cc3ccc(C(Cc4nc[nH]c(=O)c4O)CN4CC(F)C4)cc3)cc2)C1` (stereo not drawn) [Compound 160], the “E. coli MIC” value in test [2] is recorded as “A (A: ≤1 μg/mL)”.

(Values after patent US11407740B2 (priority 2018, dated 2022).)
